From patent US20220127576A1, “COMPOSITIONS AND METHODS FOR STEM CELL THERAPY” (Arizona Board of Regents on Behalf of the University of …, priority 2019, published 2022)
Entries after “also recorded” stand apart in the source; their conditions may differ.

Key:
[1] = oral, literature; cited from earlier work
[2] = tested on: lymphocyte composition in blood; assay: β-AR antagonists / PDE-4 inhibitor given prior to systemic β-AR activation (dynamic exercise): lymphocyte composition and heart rate; format: in vivo, human; conditions: antagonist administered prior to systemic β-AR activation (dynamic exercise model)
Protocol: Baseline samples were collected before drug/placebo administration and again 3 h later (pre-exercise).
To determine the β-AR subtype involved, a selective β1-AR antagonist (bisoprolol) and non-selective β1+β2-AR antagonist (nadolol) were administered prior to systemic β-AR activation (using dynamic exercise as an experimental model).

[3] = tested on: VSTs specific to CMV, EBV and adenovirus antigens; assay: Mobilization of viral-specific T-cells (IFN-γ ELISpot and IFN-γ capture assays) with systemic β-AR activation; format: in vivo, human; conditions: healthy humans (n=11)
Description: Difference from the resting condition indicated by *, p<0.05. Difference from the placebo and bisoprolol trials indicated by #, p<0.05.

VSTs and TCR-γδ cells = assay: Mobilization and ex vivo expansion of VSTs and TCR-γδ cells after systemic β-AR activation; format: cell-based, human; conditions: antagonist administered prior to systemic β-AR activation
Description: (§1) This was largely explained by a shift in the composition of NK-cells and TCR-γδ cells. […] The effects of systemic β-AR activation on the mobilization and ex vivo expansion of VSTs and TCR-γδ cells were β2-AR mediated as the effects were diminished by administering nadolol but not bisoprolol prior to systemic β-AR activation (FIG. 6).

[4] = tested on: lymphocytes, lymphocyte subtypes and CD34+ HSCs in whole blood; assay: Lymphocyte subtypes and CD34+ HSCs in whole blood at rest and during ISO infusion before and after G-CSF treatment; format: in vivo, human
Description: Values are the mean (n=7; 3 females).
This graft phenotype is predictive of improved clinical outcomes post alloHSCT, including lower incidence/severity of GvHD and viral infections, better engraftment and a lower incidence of relapse (Table 1).

[5] = tested on: leukemia and multiple myeloma target cells; assay: In vitro anti-tumor (cytotoxic) activity of mobilized PBHC grafts; format: cell-based, human; conditions: compared to rest / G-CSF only
Description: Moreover, cytotoxic activity against leukemia and multiple myeloma target cells in vitro was 2-fold greater in the G-CSF+ISO PBHC grafts compared to G-CSF alone. […] Accordingly, in some embodiments, provided herein are compositions and methods for mobilizing stem cells with enhanced properties for use in allogenic or autologous transfers.
as §1

[6] = Heart rate, blood pressure and tolerance during ISO infusion; format: in vivo, human; conditions: ISO 50 ng/kg/min, before and after 5-days G-CSF (5 mcg/kg/day); n=3
Description: Research Design: Scientific Rigor is maintained through the use of a randomized, complete cross-over, double blind placebo controlled experimental design (above table). This design allows participants to act as their own controls, thus minimizing variability and the impact of potential between-subject confounders. Healthy volunteers report to the lab on six separate occasions at the same time of day. During Visit 1, they undergo an extensive screening procedure to ensure that they meet the study inclusion/exclusion criteria. A blood sample is drawn to determine CMV serostatus (positive or negative) and MR haplotype (A or B), which is included as co-variates in the analysis. Participants then complete six trials on separate days (Visit 2-7) with 7-days interspersed between each trial. During each of these visits, subjects are infused with 50 ng/kg/min of ISO (5 visits) or saline (1 visit) for 30-minutes. Blood samples are drawn before and during the last 10-minutes of the 30-minute infusion protocol. Participants are given orally administered drugs or placebo as a single dose within a few hours prior to ISO infusion. Participants are assigned to trial order using a block randomization scheme with random block sizes of between 2 and 4 subjects to obtain a balanced sample of 8 subjects per trial sequence order (see Statistical Power and Analysis section below). The randomization list is used to create sealed envelopes that are opened to determine assignment to drug order group after visit 1, with the trial order blinded to both the investigators and the participants.

[7] = tested on: lymphocytes, lymphocyte subtypes and CD34+ HSCs in whole blood; conditions: ISO dose of 50 ng/kg/min, healthy subjects, literature; cited from earlier work
[8] = tested on: lymphocytes, lymphocyte subtypes and CD34+ HSCs in whole blood; assay: Lymphocyte subtypes and CD34+ HSCs in whole blood at rest and during ISO infusion before and after G-CSF treatment; format: in vivo, human; conditions: for Absolute number of B cells in whole blood / Absolute number of CD3+ T cells in whole blood / Absolute number of CD4+ T cells in whole blood / Absolute number of CD8+ T cells in whole blood / Absolute number of CD34+ HSCs in whole blood / Absolute number of CM CD4+ T cells in whole blood / Absolute number of CM CD8+ T cells in whole blood / Absolute number of EM CD4+ T cells in whole blood / Absolute number of EM CD8+ T cells in whole blood / Absolute number of EMRA CD4+ T cells in whole blood / Absolute number of EMRA CD8+ T cells in whole blood / Absolute number of NK cells in whole blood / Absolute number of Naïve CD4+ T cells in whole blood / Absolute number of Naïve CD8+ T cells in whole blood / Absolute number of lymphocytes (Lymph.) in whole blood / Absolute number of αβ T cells in whole blood / Absolute number of γδ T cells in whole blood: mean, n = 3
[9] = ISO dose of 50 ng/kg/min, literature; cited from earlier work
[10] = ISO infusion 50 ng/kg/min, before and after 5-days G-CSF (5 mcg/kg/day), n=7
[11] = after G-CSF mobilization, healthy volunteers
[12] = Post G-CSF, during ISO infusion

## O=C(Nc1c(Cl)cncc1Cl)c1ccc(OC(F)F)c(OCC2CC2)c1 [roflumilast]
[1]
  half-life: 15 to 18 h

## CC(C)(C)NCC(O)COc1cccc2c1CC(O)C(O)C2 (centres unmarked) [nadolol]
[2]
  effects of systemic β-AR activation on graft composition shifts: not
[2]; listed as Nadolol
  effects of systemic β-AR activation on graft composition shifts: abrogated
[3]
  effects of systemic β-AR activation on the mobilization of VSTs: inhibits; also recorded: blocked
VSTs and TCR-γδ cells
  effects of systemic β-AR activation on the mobilization and ex vivo expansion of VSTs and TCR-γδ cells: diminished
[1]
  half-life: 14 to 24 h

## COc1ccccc1OCCNCC(O)COc1cccc2[nH]c3ccccc3c12 (centres unmarked) [carvedilol]
[1]
  half-life: 7 to 10 h

## CC(C)NCC(O)c1ccc(O)c(O)c1 (centres unmarked) [ISO, isoproterenol]
[4]; [10]
  composition of CD4+ TCR-αβ cells and B-cells among total blood lymphocytes: lowers
[4]; [11]
  numbers of CD34 HSCs in peripheral blood / graft: increases; also recorded: without compromising
[5]
  in vitro anti-tumor activity of G-CSF mobilized PBHC grafts: increases
[6]
  systolic hypertension: ~30 mmHg
  tachycardia: ~50 bpm
  tolerance to ISO infusion: excellent tolerance
[7]
  mobilization of lymphocytes to the circulation: robust mobilization
[8]; [10]
  composition of NK-cells and TCR-γδ cells among total blood lymphocytes: markedly increases
[8]; [12]
  Absolute number of B cells in whole blood: 392 cells/ul
  Absolute number of CD3+ T cells in whole blood: 2933 cells/ul
  Absolute number of CD4+ T cells in whole blood: 1835 cells/ul
  Absolute number of CD8+ T cells in whole blood: 795 cells/ul
  Absolute number of CD34+ HSCs in whole blood: 92 cells/ul
  Absolute number of CM CD4+ T cells in whole blood: 298 cells/ul
  Absolute number of CM CD8+ T cells in whole blood: 41 cells/ul
  Absolute number of EM CD4+ T cells in whole blood: 429 cells/ul
  Absolute number of EM CD8+ T cells in whole blood: 342 cells/ul
  Absolute number of EMRA CD4+ T cells in whole blood: 220 cells/ul
  Absolute number of EMRA CD8+ T cells in whole blood: 184 cells/ul
  Absolute number of NK cells in whole blood: 2068 cells/ul
  Absolute number of Naïve CD4+ T cells in whole blood: 886 cells/ul
  Absolute number of Naïve CD8+ T cells in whole blood: 227 cells/ul
  Absolute number of lymphocytes (Lymph.) in whole blood: 6730 cells/ul
  Absolute number of αβ T cells in whole blood: 2253 cells/ul
  Absolute number of γδ T cells in whole blood: 214 cells/ul
[8]; Pre G-CSF, during ISO infusion
  Absolute number of B cells in whole blood: 100 cells/ul
  Absolute number of CD3+ T cells in whole blood: 924 cells/ul
  Absolute number of CD4+ T cells in whole blood: 489 cells/ul
  Absolute number of CD8+ T cells in whole blood: 329 cells/ul
  Absolute number of CD34+ HSCs in whole blood: 6 cells/ul
  Absolute number of CM CD4+ T cells in whole blood: 137 cells/ul
  Absolute number of CM CD8+ T cells in whole blood: 34 cells/ul
  Absolute number of EM CD4+ T cells in whole blood: 80 cells/ul
  Absolute number of EM CD8+ T cells in whole blood: 114 cells/ul
  Absolute number of EMRA CD4+ T cells in whole blood: 13 cells/ul
  Absolute number of EMRA CD8+ T cells in whole blood: 81 cells/ul
  Absolute number of NK cells in whole blood: 778 cells/ul
  Absolute number of Naïve CD4+ T cells in whole blood: 257 cells/ul
  Absolute number of Naïve CD8+ T cells in whole blood: 99 cells/ul
  Absolute number of lymphocytes (Lymph.) in whole blood: 2043 cells/ul
  Absolute number of αβ T cells in whole blood: 830 cells/ul
  Absolute number of γδ T cells in whole blood: 91 cells/ul
[8]; [11]
  ratio of 'favorable' to 'unfavorable' lymphocyte subtypes in peripheral blood: alters
[9]
  safety for infusing healthy subjects: safe

## CC(C)NCC(O)COc1ccc(COCCOC(C)C)cc1 (centres unmarked) [bisoprolol]
[2]
  effects of systemic β-AR activation on graft composition shifts: remained favorably altered
[3]
  effects of systemic β-AR activation on the mobilization of VSTs: not
[1]
  half-life: 10 to 12 h

B1: G-CSF: stem cell mobilization agent; filgrastim (G-CSF), 5 mcg/kg/day for 5 days (protein, chains of the INN, looked up)
chain: MTPLGPASSLPQSFLLKCLEQVRKIQGDGAALQEKLCATYKLCHPEELVLLGHSLGIPWAPLSSCPSQALQLAGCLSQLHSGLFLYQGLLQALEGISPELGPTLDTLQLDVADFATTIWQQMEELGMAPALQPTQGAMPAFASAFQRRAGGVLVASHLQSFLEVSYRVLRHLAQP
[8]; Post G-CSF, Rest
  Absolute number of B cells in whole blood: 456 cells/ul
  Absolute number of CD3+ T cells in whole blood: 2755 cells/ul
  Absolute number of CD4+ T cells in whole blood: 1749 cells/ul
  Absolute number of CD8+ T cells in whole blood: 786 cells/ul
  Absolute number of CD34+ HSCs in whole blood: 110 cells/ul
  Absolute number of CM CD4+ T cells in whole blood: 268 cells/ul
  Absolute number of CM CD8+ T cells in whole blood: 47 cells/ul
  Absolute number of EM CD4+ T cells in whole blood: 405 cells/ul
  Absolute number of EM CD8+ T cells in whole blood: 284 cells/ul
  Absolute number of EMRA CD4+ T cells in whole blood: 216 cells/ul
  Absolute number of EMRA CD8+ T cells in whole blood: 154 cells/ul
  Absolute number of NK cells in whole blood: 1158 cells/ul
  Absolute number of Naïve CD4+ T cells in whole blood: 860 cells/ul
  Absolute number of Naïve CD8+ T cells in whole blood: 302 cells/ul
  Absolute number of lymphocytes (Lymph.) in whole blood: 5866 cells/ul
  Absolute number of αβ T cells in whole blood: 2661 cells/ul
  Absolute number of γδ T cells in whole blood: 93 cells/ul
